One data set has as its system HepG2 cell line. The following applies: cited from earlier work.
Data set [1] has as its system K1 culture-adapted P. falciparum strain. Details: method as in PMID 25791675. The following applies: K1 strain of P. falciparum; reference values; read-out: EC50 PfK1; cited from earlier work.
Data set [2] shares this test system. Briefly: Antiplasmodial evaluation, SYBR Green I fluorescence-based drug susceptibility test. In kind it is cell-based. The following applies: Plasmodium falciparum; multi-resistant K1 strain of P. falciparum, 72 h incubation, three independent experiments; read-out: EC50 PfK1. As for the experimental part: […]. Parasitemia was maintained daily between 1 and 3%. The P. falciparum drug susceptibility test was carried out by comparing quantities of DNA in treated and control cultures of parasite in human erythrocytes according to a SYBR Green I fluorescence-based method[19] using a 96-well fluorescence plate reader. Compounds previously dissolved in DMSO (final concentration less than 0.5% v/v) were incubated in a total assay volume of 200 μL (RPMI, 2% hematocrit and 0.4% parasitemia) for 72 h in a humidified atmosphere (10% O2 and 5% CO2) at 37 °C in 96-well flat bottom plates. Duplicate assays were performed for each sample. After incubation, plates were frozen at […] for 24 h. Then, the frozen plates were thawed for 1 h at 37 °C. Fifteen μL of each sample were transferred to 96-well flat bottom non-sterile black plates (Greiner Bio-one, Kremsmünster, Austria), already containing 15 μL of the SYBR Green I lysis buffer (2X SYBR Green I, 20 mM Tris base pH 7.5, 20 mM EDTA, 0.008% w/v saponin, 0.08% w/v Triton X-100). […] Plates were incubated for 15 min at 37 °C and then read on a TECAN Infinite F-200 spectrophotometer with excitation and emission wavelengths at 485 and 535 nm, respectively.

The nature of the next data set: Microsomal stability. The class given is in vitro ADME, mouse. The following applies: for half-life: CD-1, read-out: t1/2 (half-time, microsomal stability); for half-life / Clint (intrinsic clearance): in vitro, female mouse microsomes, 37 °C, pH 7.4. As for the experimental part: The tested product and propranolol, used as a reference, were incubated in duplicate (reaction mixture volume of 0.5 mL) with female mouse microsomes (CD-1, 20 mg mL; BD Gentest) at 37 °C in a 50 mM phosphate buffer, pH 7.4, in the presence of MgCl2 (5 mM), NADP (1 mM), glucose-6-phosphate dehydrogenase (G6PD) (0.4 U per mL), and glucose-6-phosphate (5 mM). For the estimation of the intrinsic clearance, 50 μL aliquots were collected at 0, 5, 10, 20, 30, and 40 min and the reaction was stopped with 4 volumes of acetonitrile (ACN) containing the internal standard. After centrifugation at 10 000×g for 10 min at 4 °C, the supernatants were conserved at 4 °C for immediate analysis or placed at −80 °C in case of postponement of the analysis. Controls (time zero and final time point) in triplicate were prepared by the incubation of the internal standard with microsomes denatured by acetonitrile. The LC-MS system used for this study was a Waters Acquity I-Class/Xevo TQD equipped with a Waters Acquity BEH C18 column, 50 by 2.1 mm, 1.7 μm. The mobile phases were 10 mM ammonium acetate (mobile phase A) and acetonitrile with 0.1% formic acid (mobile phase B). The injection volume was 1 μL, and the flow rate was 600 μL min^−1. Chromatographic analysis, with a total duration of 4 min, was made with the following gradient: 0 < t < 0.2 min, 2% mobile phase B; 0.2 < t < 2 min, linear increase to 98% mobile phase B; 2 < t < 2.5 min, 98% mobile phase B; 2.5 < t < 2.6 min, linear decrease to 2% mobile phase B; 2.6 < t < 4 min, 2% mobile phase B. The quantification of each compound was obtained by converting the average of the ratios of the analyte/internal standard surfaces to the percentage of consumed product. The ratio of the control at t0 corresponded to 0% of the product consumed. The calculation of the half-life (t1/2) of each compound in the presence of microsomes was carried out according to the equation t1/2 = (ln2)/k, where k is the first-order degradation constant (the slope of the logarithm of the compound concentration versus incubation time). The intrinsic clearance in vitro (Clint, expressed in mlmin^−1mg) was calculated according to the equation Clint = (dose/AUC∞)/[microsomes], where dose is the initial concentration of the product in the sample, AUC∞ is the area under the concentration–time curve extrapolated to infinity, and [microsomes] is the microsome concentration expressed in mg μL^−1.

A short description of data set [3]: Cytotoxic evaluation, MTT assay. In kind it is cell-based. The following applies: HepG2 cells, human HepG2 cell line, three independent experiments. As for the experimental part:
The HepG2 cell line was maintained at 37 °C, 5% CO2, at 90% humidity in […] supplemented with 10% fetal bovine serum, 1% L-glutamine (200 mM), and penicillin (100 U per mL)/streptomycin (100 μg mL^−1) (complete RPMI medium). The cytotoxicity of the tested molecules on the HepG2 (hepatocarcinoma cell line purchased from ATCC, ref HB-8065) cell line was assessed according to the method of Mosmann[20] with slight modifications. Briefly, 5 × 10^3 cells in 100 μL of complete medium were inoculated into each well of 96-well plates and incubated at 37 °C in humidified 5% CO2. After 24 h incubation, 100 μL of medium with various product concentrations dissolved in DMSO (final concentration less than 0.5% v/v) were added and the plates were incubated for 72 h at 37 °C. Triplicate assays were performed for each sample. Each plate was then microscopically examined for possible precipitate formation before the medium was aspirated from the wells. Next, 100 μL of MTT (3-(4,5-dimethyl-2-thiazolyl)-2,5-diphenyl-2H-tetrazolium bromide) solution (0.5 mg mL^−1 in medium without FBS) was added to each well. Cells were incubated for 2 h at 37 °C. After this time, the MTT solution was removed and DMSO (100 μL) was added to dissolve the resulting blue formazan crystals. Plates were shaken vigorously (700 rpm) for 10 min. The absorbance was measured at 570 nm with 630 nm as a reference wavelength using a BIO-TEK ELx808 Absorbance Microplate Reader (LabX, Midland, ON, Canada). DMSO was used as a blank and doxorubicin (purchased from Sigma Aldrich) as a positive control. Cell viability was calculated as a percentage of control (cells incubated without the compound). […] CC50 values to represent the mean value calculated from three independent experiments.
A general note: Formazan colour is commonly taken as a measure of viable cells.

[4] abbreviates: read-out: CC50 HepG2, human HepG2 cell line, reference values.

Each structure is given as a SMILES string. Like-named read-outs stand apart in the source and are kept apart here.

One may read the CC50 as the concentration at which the toxic effect on the cells reaches its halfway point. Broadly, the EC50 is the midpoint of the concentration-response curve. For `O=C1C(O)=C([C@H]2CC[C@H](c3ccc(Cl)cc3)CC2)C(=O)c2ccccc21` [Atovaquone, atovaquone], the 50% cytotoxic concentration (CC50) in the data set on HepG2 cell line (setting [4]) was over 15600 nM. The EC50 in data set [1] was 1.3 nM.

As for `CCN(CC)CCCC(C)Nc1ccnc2cc(Cl)ccc12` (centres unmarked) [Chloroquine, chloroquine], in data set [1], the EC50 is 500 nM.

Take `CC(C)(C)Nc1nc2cc(N3CCCCC3)sc2c(=O)[nH]1` [Compound 1g, 2-tert-Butylamino-6-(piperidin-1-yl)thieno[3,2-d]pyrimidin-4(3H)-one]: the EC50 in data set [2] stood at 770 ± 130 nM. Moreover, in the data set “Microsomal stability”, the half-life is 40 min and the “Clint (intrinsic clearance)” value came to 42 μLmin^−1mg. Besides, in “Microsomal stability” (mouse microsomes, piperidine moiety (1g) vs tolyl moiety (M1)), the “improvement in the half-time versus M1” value is recorded as “more than 3 fold”. In addition, the cytotoxic concentration (CC50) at 72 h in data set [3] was found to be 33900 ± 1400 nM.

In the case of `Cc1ccc(-c2cc3nc(NC(C)(C)C)[nH]c(=O)c3s2)cc1` [Compound M1, gamhepathiopine, reference compound], in “Microsomal stability”, the half-life worked out at 11 min and the “Clint (intrinsic clearance)” value was determined as 240 μLmin^−1mg. In the data set on HepG2 cell line (setting [4]), the CC50 was 24000 nM. In addition, the concentration for a half-maximal effect (EC50) in data set [1] is 45 nM.

Regarding `COc1cccc2c1C(=O)c1c(O)c3c(c(O)c1C2=O)C[C@@](O)(C(=O)CO)C[C@@H]3O[C@H]1C[C@H](N)[C@H](O)[C@H](C)O1` [Doxorubicine, doxorubicine], the CC50 with HepG2 cell line was 200 nM.

On to `C[C@H]1c2cccc(O)c2C(=O)C2=C(O)[C@]3(O)C(=O)C(C(N)=O)=C(O)[C@@H](N(C)C)[C@@H]3[C@@H](O)[C@@H]21` [Doxycycline, doxycycline], for which, in the data set on HepG2 cell line (setting [4]), the half-maximal cytotoxic concentration (CC50) is 20000 nM. Besides, in data set [1], the EC50 was 5000 nM.

Consider `Cc1ccc(-c2cc3nc(NC(C)(C)C)[nH]c(=O)c3s2)cc1` [M1 (free base), gamhepathiopine], for which the half-maximal cytotoxic concentration (CC50) in the data set with HepG2 cell line (setting [4]) is 25600 nM. The EC50 in data set [1] is 200 nM.
